Our source for the Normalised activity values is patent US8759385B2, “Composition comprising azole fungicide and water soluble metal salt” (Conopco Inc., priority 2009, dated 2014).

This test has as its system Trypsin. Description: anti-trypsin effect (normalised trypsin activity). The format is biochemical. The note with it: control (trypsin only) = 1.0.

Consider `CC(C)(C)C(=O)C(Oc1ccc(Cl)cc1)n1ccnc1` (stereo not drawn) [Climbazole], for which the Normalised activity is 1.15 (Climbazole 0.00391% alone); 1.31 (Climbazole 0.00781% alone); 1.41 (Climbazole 0.01563% alone); 1.30 (Climbazole 0.03125% alone); 0.908 (Climbazole 0.0625% alone); 1.06 (Climbazole 0.125% alone).

As for Zinc gluconate, the Normalised activity runs as follows: (Zinc gluconate 0.00156% alone) 1.03; (Zinc gluconate 0.003125% alone) 0.957; (Zinc gluconate 0.00625% alone) 0.8404.
